From PubChem BioAssay AID588844 (Broad Institute, 2011) come the findings set out here.

Active and inactive are the calls of the source. The rule behind the calls is not given here.

Test system in the first test: not listed separately
As to the kind of experiment: HMLE_shECad cancer stem cell-like viability inhibition, dose response, CellTiter-Glo luminescence, dry powder, set 2 (AID 588844). The note with it: HMLE_shECad viability, CellTiter-Glo luminescence, 72 h; at 32 µM (top of the series).
In the case of `Cc1csc(NC(=O)c2ccc(COc3cccc(F)c3)o2)n1`, the remaining viability fraction was 65.6% (inactive).
As to `Cc1ccc(/C=C/C(=O)NC2=NCCS2)cc1`, the remaining viability fraction was 75.7% (inactive).
On the same count and under the same terms, the same measure for `COc1ccc(/C=C/C(=O)NC2=NCCS2)c(OC)c1`: 70.8% (inactive).

For another test, the system named is HMLE_shECad viability, CellTiter-Glo luminescence, 72 h. Described as above.
Settings: not given
By AC50 is commonly meant the concentration at which the activity in the assay is half-maximal. Turning to `CC(C)c1ccc(/C=C/C(=O)NC2=NCCS2)cc1`, the AC50 is 0.3 µM.
Same read-out and setting: the same measure for `O=C(/C=C/c1ccc(-c2ccccc2)cc1)NC1=NCCS1`: 0.625 µM.
Regarding `Cc1csc(NC(=O)c2ccc(COc3cccc(Cl)c3)o2)n1`, the AC50 is 3 µM.
Still for that read-out and setting: as for `Cc1csc(NC(=O)c2ccc(COc3ccccc3F)o2)n1`, the figure is 2.43 µM; as for `Cc1csc(NC(=O)c2ccc(COc3ccccc3)o2)n1`, 0.07 µM.
On the same count and under the same terms, as for `O=C(NC1CCCC1)c1ccc(COc2ccccc2)o1`, the figure is 23.5 µM.
